According to ChEMBL document CHEMBL4359837, “Discovery of 2-(4-Chloro-3-(trifluoromethyl)phenyl)-N-(4-((6,7-dimethoxyquinolin-4-yl)oxy)phenyl)acetamide (CHMFL-KIT-64) as a Novel Orally Available Potent Inhibitor against Broad-Spectrum Mutants of c-KIT Kinase for Gastrointestinal Stromal Tumors” (J Med Chem, 2019):
One block for each compound: values may come before it. Active and inactive are the calls of the source. No cut-off for these calls is given here.

Experiments:
[1] = test system: Mast/stem cell growth factor receptor Kit (Homo sapiens), P10721 [UNDEFINED MUTATION]; conditions: GISTT1, 0.1 uM
Description: Inhibition of c-KIT 560 to 578 deletion mutant in human GISTT1 cells assessed as reduction in STAT3 phosphorylation at Y705 residue at 0.1 uM measured after 2 hrs by Western blot analysis

[2] = test system: Mast/stem cell growth factor receptor Kit (Homo sapiens), P10721 [UNDEFINED MUTATION]; conditions: 0.1 uM
Description: Inhibition of c-KIT 560 to 578 deletion/T670I mutant in human GIST5R assessed as reduction in STAT3 phosphorylation at Y705 residue at 0.1 uM measured after 2 hrs by Western blot analysis

[3] = test system: Mast/stem cell growth factor receptor Kit (Homo sapiens), P10721 [UNDEFINED MUTATION]; conditions: GISTT1, 0.1 uM; remark: listed apart in the source
Description: Inhibition of c-KIT 560 to 578 deletion mutant in human GISTT1 cells assessed as reduction in c-KIT autophosphorylation at Y703 residue at 0.1 uM measured after 2 hrs by Western blot analysis

[4] = test system: Mast/stem cell growth factor receptor Kit (Homo sapiens), P10721 [UNDEFINED MUTATION]; conditions: GISTT1, 0.1 uM; remark: listed apart in the source
Description: Inhibition of c-KIT 560 to 578 deletion mutant in human GISTT1 cells assessed as reduction in c-KIT autophosphorylation at Y719 residue at 0.1 uM measured after 2 hrs by Western blot analysis

[5] = test system: Mast/stem cell growth factor receptor Kit (Homo sapiens), P10721 [UNDEFINED MUTATION]; conditions: GISTT1, 0.1 uM; remark: listed apart in the source
Description: Inhibition of c-KIT 560 to 578 deletion/T670I mutant in human GISTT1 cells assessed as reduction in c-KIT autophosphorylation at Y703 residue at 0.1 uM measured after 2 hrs by Western blot analysis

[6] = test system: Mast/stem cell growth factor receptor Kit (Homo sapiens), P10721 [UNDEFINED MUTATION]; conditions: GISTT1, 0.1 uM; remark: listed apart in the source
Description: Inhibition of c-KIT 560 to 578 deletion/T670I mutant in human GISTT1 cells assessed as reduction in c-KIT autophosphorylation at Y823 residue at 0.1 uM measured after 2 hrs by Western blot analysis

[7] = test system: Mast/stem cell growth factor receptor Kit (Homo sapiens), P10721 [UNDEFINED MUTATION]; conditions: 0.1 uM; remark: listed apart in the source
Description: Inhibition of c-KIT 560 to 578 deletion/T670I mutant in human GIST5R cells assessed as reduction in c-KIT autophosphorylation at Y719 residue at 0.1 uM measured after 2 hrs by Western blot analysis

[8] = test system: Mast/stem cell growth factor receptor Kit (Homo sapiens), P10721 [UNDEFINED MUTATION]; conditions: 0.1 uM; remark: listed apart in the source
Description: Inhibition of c-KIT 560 to 578 deletion/T670I mutant in human GIST5R cells assessed as reduction in c-KIT autophosphorylation at Y823 residue at 0.1 uM measured after 2 hrs by Western blot analysis

[9] = test system: Mast/stem cell growth factor receptor Kit (Homo sapiens), P10721 [UNDEFINED MUTATION]; conditions: GISTT1, 0.1 uM; remark: listed apart in the source
Description: Inhibition of c-KIT 560 to 578 deletion mutant in human GISTT1 cells assessed as reduction in pS6 phosphorylation at S235 residue at 0.1 uM measured after 2 hrs by Western blot analysis

[10] = test system: Mast/stem cell growth factor receptor Kit (Homo sapiens), P10721 [UNDEFINED MUTATION]; conditions: GISTT1, 0.1 uM; remark: listed apart in the source
Description: Inhibition of c-KIT 560 to 578 deletion mutant in human GISTT1 cells assessed as reduction in ERK phosphorylation at T202 residue at 0.1 uM measured after 2 hrs by Western blot analysis

[11] = test system: Mast/stem cell growth factor receptor Kit (Homo sapiens), P10721 [UNDEFINED MUTATION]; conditions: 0.1 uM; remark: listed apart in the source
Description: Inhibition of c-KIT 560 to 578 deletion/T670I mutant in human GIST5R assessed as reduction in ERK phosphorylation at T202 residue at 0.1 uM measured after 2 hrs by Western blot analysis

[12] = Toxicity in BALB/c nu mouse implanted with mouse BAF3(transformed) cells harboring c-KIT T670I mutant assessed as change in body weight at 40 to 100 mg/kg/day, po administered via gavage for 11 days measured daily during compound dosing; format: organism-based; conditions: in vivo, 264 h
[13] = target: Macrophage colony-stimulating factor 1 receptor (Homo sapiens, UniProt P07333); test: Binding affinity to wild-type human partial length CSF1R (I564 to S939 residues) expressed in bacterial expression system assessed as residual binding level at 1 uM by Kinomescan method relative to control
[14] = target: Epithelial discoidin domain-containing receptor 1 (Homo sapiens, UniProt Q08345); test: Binding affinity to wild-type human partial length DDR1 (R565 to V876 residues) expressed in bacterial expression system assessed as residual binding level at 1 uM by Kinomescan method relative to control
[15] = target: T1, Platelet-derived growth factor receptor alpha (Homo sapiens, UniProt P16234); test: Binding affinity to wild-type human partial length PDGFRA (V575 to D1002 residues) expressed in mammalian expression system assessed as residual binding level at 1 uM by Kinomescan method relative to control
[16] = target: Mast/stem cell growth factor receptor Kit (Homo sapiens, UniProt P10721); test: Inhibition of human KIT
[17] = target: Mast/stem cell growth factor receptor Kit (Homo sapiens, UniProt P10721, T670I/V559D); test: Inhibition of human N-terminal GST-tagged KIT V559D/T670I double mutant (544 to end residues) expressed in baculovirus infected Sf9 insect cells by Lanthascreen Eu-binding method
[18] = target: T1, Platelet-derived growth factor receptor alpha; test: Inhibition of recombinant human GST-tagged PDGFRA cytoplasmic domain (550 to 1089 residues) expressed in baculovirus expression system by Z-lyte assay
[19] = target: Epithelial discoidin domain-containing receptor 1 (Mus musculus) (UniProt Q03146); test: Inhibition of DDR1 in mouse BAF3(transformed) cells assessed as growth inhibition after 72 hrs by CCK8 assay
[20] = target: Platelet-derived growth factor receptor alpha (Mus musculus) (UniProt P26618); test: Inhibition of PDGFRA in mouse BAF3(transformed) cells assessed as growth inhibition after 72 hrs by CCK8 assay
[21] = target: Proto-oncogene tyrosine-protein kinase receptor Ret (Mus musculus) (UniProt P35546); test: Inhibition of RET in mouse BAF3(transformed) cells assessed as growth inhibition after 72 hrs by CCK8 assay
[22] = target: T2, Mast/stem cell growth factor receptor Kit (Homo sapiens, UniProt P10721, 560-578DEL/T670I); format: cell-based, GISTT1
[23] = target: T2, Mast/stem cell growth factor receptor Kit; format: cell-based, GISTT1; remark: listed apart in the source
[24] = target: T2, Mast/stem cell growth factor receptor Kit; format: cell-based
[25] = target: T3, Mast/stem cell growth factor receptor Kit (Homo sapiens, UniProt P10721, 560-578DEL); format: cell-based, GISTT1
[26] = target: T3, Mast/stem cell growth factor receptor Kit; format: cell-based, GISTT1; remark: listed apart in the source
[27] = target: T2, Mast/stem cell growth factor receptor Kit; format: cell-based, GISTT1; remark: listed apart in the source
[28] = target: T2, Mast/stem cell growth factor receptor Kit; format: cell-based, GISTT1; remark: listed apart in the source
[29] = target: T2, Mast/stem cell growth factor receptor Kit
[30] = target: T2, Mast/stem cell growth factor receptor Kit; remark: listed apart in the source
[31] = target: RAC-alpha serine/threonine-protein kinase (Homo sapiens) (UniProt P31749); format: cell-based; conditions: GISTT1
[32] = target: RAC-alpha serine/threonine-protein kinase (Homo sapiens) (UniProt P31749); format: cell-based; conditions: GISTT1; remark: listed apart in the source
[33] = test system: GISTT1; format: functional, cell-based; conditions: Homo sapiens
[34] = organism: Homo sapiens; format: functional, cell-based
[35] = test system: GISTT1; format: functional, cell-based; conditions: Homo sapiens; remark: listed apart in the source
[36] = target: T1, Platelet-derived growth factor receptor alpha; format: cell-based; conditions: GISTT1
[37] = Half life in Sprague-Dawley rat at 1 mg/kg, iv by LC-MS/MS analysis; format: ADME, organism-based; conditions: in vivo
[38] = AUC (0 to t) in mouse at 1 mg/kg, iv by LC-MS/MS analysis; format: ADME, organism-based; conditions: in vivo
[39] = AUC (0 to t) in mouse at 10 mg/kg, po by LC-MS/MS analysis; format: ADME, organism-based; conditions: in vivo
[40] = Cmax in mouse at 10 mg/kg, po by LC-MS/MS analysis; format: ADME, organism-based; parameters: dose 10 mg/kg, route oral; conditions: in vivo
[41] = Oral bioavailability in mouse at 10 mg/kg by LC-MS/MS analysis; format: ADME, organism-based; conditions: in vivo
[42] = Cmax in Beagle dog at 1 mg/kg, iv by LC-MS/MS analysis; format: ADME, organism-based, Canis lupus familiaris; parameters: dose 1 mg/kg, route intravenous; conditions: in vivo
[43] = test system: Mus musculus; format: functional, organism-based; conditions: BALB/c, 80 mg/kg, TDE = time-dependent effect
[44] = test system: Mus musculus; format: functional, organism-based; conditions: BALB/c, 80 mg/kg
[45] = Antitumor activity against mouse BAF3(transformed) cells harboring c-KIT D820G mutant implanted in BALB/c nu mouse assessed as tumor growth inhibition at 40 mg/kg/day, po administered via gavage for 9 days relative to control; format: functional; conditions: 216 h, read-out: TGI
[46] = test system: GISTT1; format: functional, Homo sapiens
[47] = test system: GISTT1; format: functional, cell-based; conditions: Homo sapiens; remark: listed apart in the source
[48] = test system: Mast/stem cell growth factor receptor Kit (Homo sapiens), P10721 [UNDEFINED MUTATION]; conditions: GISTT1
Description: Inhibition of c-KIT 560 to 578 deletion mutant in human GISTT1 cells assessed as growth inhibition after 72 hrs by CCK8 assay

[49] = test system: Mast/stem cell growth factor receptor Kit (Homo sapiens), P10721 [UNDEFINED MUTATION]
Description: Inhibition of c-KIT 560 to 578 deletion/T670I mutant in human GIST5R cells assessed as growth inhibition after 72 hrs by CCK8 assay

T2 sequence (P10721 whole entry, looked up, stated change not applied): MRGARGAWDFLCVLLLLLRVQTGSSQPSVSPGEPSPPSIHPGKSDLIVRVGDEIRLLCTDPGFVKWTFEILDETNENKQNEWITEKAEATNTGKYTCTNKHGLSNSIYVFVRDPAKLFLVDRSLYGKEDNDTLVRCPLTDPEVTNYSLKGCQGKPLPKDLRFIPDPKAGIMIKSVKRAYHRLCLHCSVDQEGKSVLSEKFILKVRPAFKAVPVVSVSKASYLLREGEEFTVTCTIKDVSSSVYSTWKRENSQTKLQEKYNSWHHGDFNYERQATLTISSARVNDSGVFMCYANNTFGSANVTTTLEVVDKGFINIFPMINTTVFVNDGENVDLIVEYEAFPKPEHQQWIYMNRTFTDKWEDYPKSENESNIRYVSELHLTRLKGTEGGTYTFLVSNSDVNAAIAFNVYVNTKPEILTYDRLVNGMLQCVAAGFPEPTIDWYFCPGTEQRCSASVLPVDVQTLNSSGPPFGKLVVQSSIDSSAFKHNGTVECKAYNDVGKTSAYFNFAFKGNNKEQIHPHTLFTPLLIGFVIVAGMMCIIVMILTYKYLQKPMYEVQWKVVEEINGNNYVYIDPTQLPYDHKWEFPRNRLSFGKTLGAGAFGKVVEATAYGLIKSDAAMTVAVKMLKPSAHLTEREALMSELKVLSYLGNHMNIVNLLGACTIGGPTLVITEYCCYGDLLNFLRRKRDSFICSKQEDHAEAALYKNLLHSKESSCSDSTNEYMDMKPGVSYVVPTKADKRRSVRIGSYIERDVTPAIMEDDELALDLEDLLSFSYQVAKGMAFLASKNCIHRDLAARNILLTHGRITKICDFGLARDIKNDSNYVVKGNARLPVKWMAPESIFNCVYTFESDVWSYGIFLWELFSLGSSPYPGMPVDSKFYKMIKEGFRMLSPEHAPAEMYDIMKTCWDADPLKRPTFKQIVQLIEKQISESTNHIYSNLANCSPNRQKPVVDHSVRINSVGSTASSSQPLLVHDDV
Mast/stem cell growth factor receptor Kit (Homo sapiens), P10721 [UNDEFINED MUTATION], sequence (P10721 whole entry, looked up, change not shown): as the sequence (P10721 whole entry, looked up, stated change not applied) above
T1 sequence (P16234 whole entry, the tested form may be a part): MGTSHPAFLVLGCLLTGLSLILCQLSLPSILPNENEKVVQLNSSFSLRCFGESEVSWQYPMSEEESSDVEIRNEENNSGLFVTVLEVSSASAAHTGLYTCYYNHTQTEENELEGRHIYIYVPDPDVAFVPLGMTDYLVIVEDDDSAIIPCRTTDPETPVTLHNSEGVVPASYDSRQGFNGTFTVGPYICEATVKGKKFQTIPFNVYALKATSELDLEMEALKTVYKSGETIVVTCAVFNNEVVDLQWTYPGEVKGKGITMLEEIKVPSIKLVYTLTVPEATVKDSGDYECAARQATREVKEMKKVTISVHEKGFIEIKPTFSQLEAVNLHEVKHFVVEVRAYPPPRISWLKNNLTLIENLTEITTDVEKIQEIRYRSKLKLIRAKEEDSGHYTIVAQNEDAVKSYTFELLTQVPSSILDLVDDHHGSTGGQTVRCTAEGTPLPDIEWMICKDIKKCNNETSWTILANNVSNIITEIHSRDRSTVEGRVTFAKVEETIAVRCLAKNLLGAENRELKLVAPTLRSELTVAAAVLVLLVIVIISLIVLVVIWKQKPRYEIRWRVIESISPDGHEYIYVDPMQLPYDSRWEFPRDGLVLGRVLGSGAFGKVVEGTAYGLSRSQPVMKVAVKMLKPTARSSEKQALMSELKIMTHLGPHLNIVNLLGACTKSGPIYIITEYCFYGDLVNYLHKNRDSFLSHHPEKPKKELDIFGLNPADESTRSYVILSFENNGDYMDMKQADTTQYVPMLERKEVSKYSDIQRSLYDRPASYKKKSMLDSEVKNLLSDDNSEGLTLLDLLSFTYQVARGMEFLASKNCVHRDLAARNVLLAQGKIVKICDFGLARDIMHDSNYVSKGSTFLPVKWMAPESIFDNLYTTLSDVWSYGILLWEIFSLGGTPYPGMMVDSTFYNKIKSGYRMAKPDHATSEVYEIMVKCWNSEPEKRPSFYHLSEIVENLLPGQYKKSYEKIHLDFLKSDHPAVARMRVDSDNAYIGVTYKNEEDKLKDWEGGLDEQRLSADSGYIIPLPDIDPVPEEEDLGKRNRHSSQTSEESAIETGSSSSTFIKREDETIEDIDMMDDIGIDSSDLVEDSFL
RAC-alpha serine/threonine-protein kinase (Homo sapiens), sequence (P31749 whole entry): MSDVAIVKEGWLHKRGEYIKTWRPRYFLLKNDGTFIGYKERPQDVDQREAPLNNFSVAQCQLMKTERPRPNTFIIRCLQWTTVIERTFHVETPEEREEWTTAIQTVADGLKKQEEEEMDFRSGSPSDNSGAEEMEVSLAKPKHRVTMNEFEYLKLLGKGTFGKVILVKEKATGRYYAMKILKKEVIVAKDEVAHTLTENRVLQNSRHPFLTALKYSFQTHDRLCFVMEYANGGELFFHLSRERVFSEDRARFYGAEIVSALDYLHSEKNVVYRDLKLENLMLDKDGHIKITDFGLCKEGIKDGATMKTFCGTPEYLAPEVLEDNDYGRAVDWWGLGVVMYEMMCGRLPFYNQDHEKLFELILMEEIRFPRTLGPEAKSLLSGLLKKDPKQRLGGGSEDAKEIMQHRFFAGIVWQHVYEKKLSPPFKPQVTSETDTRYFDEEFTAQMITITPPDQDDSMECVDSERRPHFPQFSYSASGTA
T3 sequence (P10721 whole entry, looked up, stated change not applied): as the sequence (P10721 whole entry, looked up, stated change not applied) above
Macrophage colony-stimulating factor 1 receptor, sequence (P07333 whole entry, the tested form may be a part): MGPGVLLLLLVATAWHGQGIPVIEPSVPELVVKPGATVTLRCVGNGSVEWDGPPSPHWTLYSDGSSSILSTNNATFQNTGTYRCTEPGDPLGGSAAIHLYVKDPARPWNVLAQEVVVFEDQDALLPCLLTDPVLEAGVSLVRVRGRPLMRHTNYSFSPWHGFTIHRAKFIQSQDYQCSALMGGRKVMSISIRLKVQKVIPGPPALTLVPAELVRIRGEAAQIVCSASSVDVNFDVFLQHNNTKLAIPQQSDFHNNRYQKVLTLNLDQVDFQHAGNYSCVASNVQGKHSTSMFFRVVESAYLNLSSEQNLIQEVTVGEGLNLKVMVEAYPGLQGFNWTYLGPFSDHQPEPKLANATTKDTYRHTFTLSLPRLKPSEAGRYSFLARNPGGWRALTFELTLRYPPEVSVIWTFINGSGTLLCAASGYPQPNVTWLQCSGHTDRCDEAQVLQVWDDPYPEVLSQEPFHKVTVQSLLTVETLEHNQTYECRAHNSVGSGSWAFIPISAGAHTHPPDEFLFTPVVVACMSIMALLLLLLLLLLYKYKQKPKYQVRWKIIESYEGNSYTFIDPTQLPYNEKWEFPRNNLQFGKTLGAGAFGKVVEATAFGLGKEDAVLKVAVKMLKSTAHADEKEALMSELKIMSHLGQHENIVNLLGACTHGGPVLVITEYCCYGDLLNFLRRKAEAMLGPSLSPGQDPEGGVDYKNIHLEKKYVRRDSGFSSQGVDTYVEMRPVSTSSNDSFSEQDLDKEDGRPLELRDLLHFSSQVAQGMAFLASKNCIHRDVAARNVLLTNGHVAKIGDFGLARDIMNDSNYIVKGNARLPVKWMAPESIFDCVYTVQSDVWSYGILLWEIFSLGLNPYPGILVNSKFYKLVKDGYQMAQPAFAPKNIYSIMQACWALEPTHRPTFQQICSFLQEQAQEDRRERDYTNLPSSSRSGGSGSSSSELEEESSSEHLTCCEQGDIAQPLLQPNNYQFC
Mast/stem cell growth factor receptor Kit (Homo sapiens, UniProt P10721), sequence (P10721 whole entry): as the sequence (P10721 whole entry, looked up, stated change not applied) above
Proto-oncogene tyrosine-protein kinase receptor Ret (Mus musculus), sequence (P35546 whole entry): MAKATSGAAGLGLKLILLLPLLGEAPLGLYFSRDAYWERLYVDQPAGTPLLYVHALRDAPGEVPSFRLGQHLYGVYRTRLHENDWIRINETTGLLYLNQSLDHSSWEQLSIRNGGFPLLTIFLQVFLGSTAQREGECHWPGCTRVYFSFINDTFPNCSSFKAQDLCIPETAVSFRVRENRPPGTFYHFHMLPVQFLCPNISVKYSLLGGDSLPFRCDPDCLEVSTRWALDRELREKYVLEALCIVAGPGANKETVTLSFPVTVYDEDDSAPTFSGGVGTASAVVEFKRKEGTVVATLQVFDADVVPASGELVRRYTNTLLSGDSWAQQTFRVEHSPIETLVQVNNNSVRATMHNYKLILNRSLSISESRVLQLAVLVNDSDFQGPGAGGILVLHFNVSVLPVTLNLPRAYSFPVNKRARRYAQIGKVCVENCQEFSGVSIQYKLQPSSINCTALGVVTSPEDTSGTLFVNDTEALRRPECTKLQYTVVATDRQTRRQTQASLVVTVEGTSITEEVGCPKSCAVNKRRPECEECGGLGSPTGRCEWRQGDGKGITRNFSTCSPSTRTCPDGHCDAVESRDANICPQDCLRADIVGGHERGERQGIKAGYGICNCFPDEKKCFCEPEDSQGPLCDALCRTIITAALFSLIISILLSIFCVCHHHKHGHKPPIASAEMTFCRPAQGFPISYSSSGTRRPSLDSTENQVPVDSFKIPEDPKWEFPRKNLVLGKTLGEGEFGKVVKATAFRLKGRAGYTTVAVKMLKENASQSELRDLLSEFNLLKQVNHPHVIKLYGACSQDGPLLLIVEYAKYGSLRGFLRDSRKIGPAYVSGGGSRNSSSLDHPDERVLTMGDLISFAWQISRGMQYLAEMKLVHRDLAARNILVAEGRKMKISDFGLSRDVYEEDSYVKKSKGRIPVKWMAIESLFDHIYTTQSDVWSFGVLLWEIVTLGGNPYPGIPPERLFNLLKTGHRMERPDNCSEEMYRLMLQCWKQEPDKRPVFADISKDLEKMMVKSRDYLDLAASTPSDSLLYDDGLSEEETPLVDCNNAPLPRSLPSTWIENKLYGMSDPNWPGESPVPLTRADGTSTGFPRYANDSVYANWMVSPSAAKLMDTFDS

inhibition [1]: Active
inhibition [2]: Active
inhibition [3]: Active
inhibition [4]: Active
inhibition [5]: Active
inhibition [6]: Active
inhibition [7]: Active
inhibition [8]: Active
inhibition [9]: Active
inhibition [10]: Active
inhibition [11]: Active
Structure (SMILES): CCN(CC)CCNC(=O)c1c(C)[nH]c(/C=C2\C(=O)Nc3ccc(F)cc32)c1C [SUNITINIB]

Structure (SMILES): COc1cc2nccc(Oc3ccc(NC(=O)Cc4ccc(Cl)c(C(F)(F)F)c4)cc3)c2cc1OC
Activity [12]: Non-Toxic
Activity [13]: < 1%
Activity [14]: < 1%
Activity [15]: < 1%
IC50 [16]: 4 nM
IC50 [17]: 8 nM
IC50 [18]: 25 nM
GI50 [19]: > 1000 nM
GI50 [20]: 1 nM
GI50 [21]: 280 nM
EC50 [22]: < 100 nM
EC50 [23]: < 100 nM
EC50 [24]: < 100 nM
EC50 [25]: < 100 nM
EC50 [26]: < 100 nM
EC50 [27]: < 100 nM
EC50 [28]: < 100 nM
EC50 [29]: < 100 nM
EC50 [30]: < 100 nM
inhibition [31]: Active
inhibition [32]: inactive
Activity [33]: Dose-dependent effect
Activity [34]: Dose-dependent effect
Activity [35]: Dose-dependent effect
inhibition [36]: Active
half-life [37]: 15.8 h
AUC(0-t) [38]: 2990 ng·h/mL
AUC(0-t) [39]: 12600 ng·h/mL
Cmax [40]: 1390 ng/mL
bioavailability [41]: 43%
Cmax [42]: 1110 ng/mL
inhibition [43]: Tde
inhibition [44]: inactive
inhibition in vivo at 40 mg/kg/day [45]: 88.9%
Activity [46]: 0.2 g
TGI [47]: Dose-dependent effect
GI50 [48]: 6 nM
GI50 [49]: 73 nM
